Values belong to the molecule of their own block, whether it stands above or below them.
How the values were obtained:
MCF-7 cells = experiment: Cell viability assay (CellTiter-Glo 2.0); type: cell-based
Description: (§1) To assess the cytotoxicity of GP1 and GP2in vitro, cell viability assays were performed to determine the IC50 concentrations in three cancer cell lines (A2780, HeLa, and MCF-7). Table 2 summarizes the IC50 concentrations of both agents compared to those of cisplatin and carboplatin. […] For all cell lines, GP1 was less toxic than cisplatin but followed the same trend of highest toxicity in A2780 cells and least toxic in MCF-7 cells. GP1 releases cisplatin intracellularly, therefore the apparent difference in toxicity of the two is likely due to decreased cell permeability of GP1 caused by the Gd(III) complex. However, because GP1 is inert in the extracellular matrix, higher doses can be safely administered to account for the decreased cell permeability. […]
(§2) lines were grown in a humidified incubator at 37 °C and 5% CO2 and were harvested using 0.25% TrypLE. Cells were grown for 24 hours after plating before each experiment. All solutions were filtered through […] sterile filters before use.
(§3) Viability Assays. A2780, HeLa, and MCF-7 cells were plated at a density of 3,000 cells per well (100 µL) in an opaque white 96-well plate. Cells were dosed with 100 µL of solutions of GP1, GP2, cisplatin, or carboplatin in MEM and incubated for 48 hours (GP1 or cisplatin) or 72 hours (GP2 or carboplatin). After incubation, 50 µL CellTiter-Glo 2.0 (Promega, Madison, WI) was added to each well and the assay was carried out following the manufacturer’s protocol.
(§4) Luminescence of the wells was measured using a Synergy H1 microplate reader (BioTek, Winooski, VT). Viability was determined by comparing luminescence readings of the cells treated with agent to untreated control cells. […]

HeLa cells [1] = experiment: Cell viability assay (CellTiter-Glo 2.0); type: cell-based
Description: as §1, §2, §3, §4

A2780 cells [2] = experiment: Cell viability assay (CellTiter-Glo 2.0); type: cell-based
Description: as §1, §2, §3, §4

HeLa cells [3] = experiment: Concentration-dependent cell uptake, Gd and Pt by ICP-MS; type: cell-based; settings: incubated near IC50 concentrations, 24 h
Description: (§5) Accumulation of GP1 and GP2 in cells was measured by concentration-dependent uptake experiments in A2780 and HeLa cells. Individual concentration-dependent uptake graphs are found in the ESI. ^†Table 3 compares the accumulation of Gd and Pt in A2780 and HeLa cells that were incubated with GP1, GP2, cisplatin, and carboplatin near their respective IC50 concentrations. For comparison, both cell lines were dosed with complex 1 at similar concentrations as GP1 and GP2. […] First, the accumulation of Gd in both cell lines for both agents is higher than what is typically considered the amount necessary for detection by MR (high μM concentrations).[32,33] […]
as §4
(§6) Aliquots of cell suspensions were mixed with the Guava ViaCount Reagent and allowed to stain for 5 minutes. The samples were vortexed for 20 seconds and cell count was determined via manual analysis using a Guava EasyCyte Mini PCA and ViaCount software. […] Performance of the instrument was assessed daily using Guava-Check Beads and the manufacturer’s protocol and Daily Check software.
(§7) Quantification of Gadolinium and Platinum with Inductively Coupled Plasma Mass Spectrometry. […]

A2780 cells [4] = experiment: as above; type: cell-based; settings: incubated near IC50 concentrations, 24 h
Description: as §5, §4, §6, §7

A2780 cells [5] = experiment: MR imaging of cell pellets at 7 T; type: cell-based; settings: A2780, 7 T, 6 h incubation; cisplatin 7.5 μM, 1 100 μM, GP1 30 μM, GP2 60 μM
HeLa cells [6] = experiment: MR imaging of cell pellets at 7 T; type: cell-based; settings: 6 h incubation, cisplatin 15 μM, 1 100 μM, GP1 60 μM, GP2 250 μM
[7] = T1/T2 relaxivity measurements in PBS; type: physicochemical; settings: 37 °C
Description: The T1 relaxivity (r1) and T2 relaxivity (r2) of 1, GP1, and GP2 were measured at both low (1.41 T) and high (7 T) magnetic field strength in phosphate-buffered saline (PBS) to quantify how well they behave as MR contrast agents. […] The relaxivity values for 1 are well within the range of what is expected for a small molecule Gd(III) complex.[34] […] At 7 T, there was little change in r1 for both agents, while both r2 values increased, as expected. […]
solution. These capillaries were imaged using a Bruker PharmaScan 7 T MR imaging spectrometer (Bruker BioSpin, Billerica, MA, USA). T1 relaxation times were measured using a rapid-acquisition rapid-echo (RARE-VTR) T1-map pulse sequence with static TE (10 ms) and […]
parameters were as follows: field of view (FOV) = 25 x 25 mm2, matrix size (MTX) = 256 x 256, number of axial slices = 5, slice thickness (SI) = 1.0 mm, and averages (NEX) = 4. T1 analysis was carried out using the image sequence analysis tool in Paravision 5.0 pl2 software (Bruker, Billerica, MA, USA) with monoexponential curve-fitting of image intensities of selected regions of interest (ROIs) for each axial slice. […]
(§8) Fig. S2 Graph of r1 of (A) GP1 measured at 1.41 T (B) GP1 measured at 7 T (C) GP2 measured at 1.41 T
(D) GP2 measured at 7 T (E) 1 measured at 1.41 T (F) 1 measured at 7 T. All measurements were taken in PBS at 37 °C (G) 1 measured at 1.41 T with 5 mM GSH (H) GP1 measured at 1.41 T with 5 mM GSH and (I) GP2 measured at 1.41 T with 5 mM GSH.
(§9) Table S1. r1 of GP1, GP2, and 1 in PBS with 5 mM glutathione at 37 °C
(§10) GP1 (5 mM GSH) GP2 (5 mM GSH) 1 (5 mM GSH)

[8] = Relaxivity after incubation in 5 mM GSH in PBS; type: physicochemical; settings: 1.41 T, PBS with 5 mM glutathione, 37 °C
Description: This is possibly due to an increase in the rotational correlation time (τR) or a change in the inner sphere hydration number (q) of Gd(III). The differences in relaxivity of GP1 and GP2 compared to 1 offers the possibility of monitoring reduction of the agents by MR at both high and low field strength. To test this, GP1, GP2, and 1 were incubated in 5 mM GSH in PBS and the relaxivity was measured (see ESI ^†). The relaxivity of each converged to the same value (r1 of 4.4, 4.5, and 4.6 mM^−1 s^−1 for 1, GP1, and GP2 respectively), indicating the same Gd(III) species was formed after reduction. The significant change in r1 upon reduction of GP1 and GP2 theoretically could be used to monitor intracellular reduction by MR. However, further testing needs to be done to determine if these agents are suitable for this application.
as §8
(D) GP2 measured at 7 T (E) 1 measured at 1.41 T (F) 1 measured at 7 T. All measurements were taken
in PBS at 37 °C (G) 1 measured at 1.41 T with 5 mM GSH (H) GP1 measured at 1.41 T with 5 mM GSH
and (I) GP2 measured at 1.41 T with 5 mM GSH.
as §9, §10

[9] = Aqueous solubility (qualitative); type: physicochemical; settings: aqueous solutions / solvents

SMILES: N.N.O=C([O-])C1(C(=O)[O-])CCC1.[Pt+2] [Carboplatin, carboplatin]
- IC50 (MCF-7 cells; MCF-7, 72 h incubation): 124 ± 4 µM
- IC50 (HeLa cells [1]; 72 h incubation): 71.2 ± 4.9 µM
- IC50 (A2780 cells [2]; A2780, 72 h incubation): 15.3 ± 5.8 µM
- Cell accumulation of Pt (HeLa cells [3]): 0.60 ± 0.11 fmol per cell
- Cell accumulation of Pt (A2780 cells [4]): 0.22 ± 0.02 fmol per cell

SMILES: N.N.[Cl][Pt][Cl] [Cisplatin, cisplatin]
- IC50 (MCF-7 cells; MCF-7, 48 h incubation): 22.4 ± 2 µM
- IC50 (HeLa cells [1]; 48 h incubation): 14.7 ± 1.2 µM
- IC50 (A2780 cells [2]; A2780, 48 h incubation): 7.6 ± 2.3 µM
- T1 of cell pellet (A2780 cells [5]): 2216 ± 26 ms
- Δ R1 (increase in R1 vs untreated control) (A2780 cells [5]): 4.6%
- T1 of cell pellet (HeLa cells [6]): 2236 ± 19 ms
- Δ R1 (increase in R1 vs untreated control) (HeLa cells [6]): 2.7%

- r1 (T1 relaxivity) ([7]; 1.41 T): 4.1 mM⁻¹ s⁻¹
- r1 (T1 relaxivity) ([7]; 7 T): 4.7 mM⁻¹ s⁻¹
- r1 with 5 mM GSH [8]: 4.4 mM⁻¹ s⁻¹
SMILES: O=C([O-])CN1CCN(CCCCCC(=O)O)CCN(CC(=O)[O-])CCN(CC(=O)[O-])CC1.[Gd+3] [Complex 1]
- T1 of cell pellet (A2780 cells [5]): 2170 ± 34 ms
- Δ R1 (increase in R1 vs untreated control) (A2780 cells [5]): 6.8%
- T1 of cell pellet (HeLa cells [6]): 2178 ± 42 ms
- Δ R1 (increase in R1 vs untreated control) (HeLa cells [6]): 5.5%

- Solubility [9]: insoluble in most solvents
SMILES: [NH2][Pt]([NH2])([OH])([OH])([Cl])[Cl] [Complex 2]

SMILES: [NH2][Pt]1([NH2])([OH])([OH])[O]C(=O)C2(CCC2)C(=O)[O]1 [Complex 3]
- Solubility [9]: insoluble in most solvents
